{"source": "paper PMC5218480", "about": "(PLoS ONE, 2017)", "test_system": "MV-4-11 cells", "experiment": "Gene expression microarray analysis (Affymetrix PrimeView) and GSEA", "assay_type": "cell-based, human", "design": "RFU PODN (11730768_x_at) / Fold change /veh PODN (11730768_x_at) / RFU LINC00158 (11744669_a_at) / Fold change /veh LINC00158 (11744669_a_at) / RFU DUSP10 (11751237_a_at) / Fold change /veh DUSP10 (11751237_a_at) / RFU ID3 (11757404_x_at) / Fold change /veh ID3 (11757404_x_at) / RFU PLEKHG5 (11737974_s_at) / Fold change /veh PLEKHG5 (11737974_s_at) / RFU LRRC4B (11730491_at) / Fold change /veh LRRC4B (11730491_at) / RFU GIMAP4 (11747438_a_at) / Fold change /veh GIMAP4 (11747438_a_at) / RFU KRT8 (11758183_x_at) / Fold change /veh KRT8 (11758183_x_at) / RFU CNN1 (11734310_a_at) / Fold change /veh CNN1 (11734310_a_at) / RFU VPS37D (11726825_at) / Fold change /veh VPS37D (11726825_at) / RFU C10orf10 (11716522_x_at) / Fold change /veh C10orf10 (11716522_x_at) / RFU KIR2DL2 /// KIR2DL4 /// KIR2DL5A /// KIR2DL5B /// KIR2DS1 /// KIR2DS2 /// KIR2DS3 /// KIR2DS4 /// KIR3DL3 /// KIR3DL3 /// KIR3DS1 (11738374_at) / Fold change /veh KIR2DL2 /// KIR2DL4 /// KIR2DL5A /// KIR2DL5B /// KIR2DS1 /// KIR2DS2 /// KIR2DS3 /// KIR2DS4 /// KIR3DL3 /// KIR3DL3 /// KIR3DS1 (11738374_at) / RFU C1QL1 (11718748_at) / Fold change /veh C1QL1 (11718748_at) / RFU TMPRSS4 (11747572_a_at) / Fold change /veh TMPRSS4 (11747572_a_at) / RFU HAMP (11756126_x_at) / Fold change /veh HAMP (11756126_x_at) / RFU RNFT2 (11725882_a_at) / Fold change /veh RNFT2 (11725882_a_at) / RFU NR4A2 (11747474_a_at) / Fold change /veh NR4A2 (11747474_a_at) / RFU ABCC12 (11746883_a_at) / Fold change /veh ABCC12 (11746883_a_at) / RFU TMEM136 (11760407_x_at) / Fold change /veh TMEM136 (11760407_x_at) / RFU CLDN22 /// WWC2 (11732394_at) / Fold change /veh CLDN22 /// WWC2 (11732394_at) / RFU HLA-DPB1 (11760878_x_at) / Fold change /veh HLA-DPB1 (11760878_x_at) / RFU SPINT1 (11716480_a_at) / Fold change /veh SPINT1 (11716480_a_at) / RFU GAP43 (11754022_s_at) / Fold change /veh GAP43 (11754022_s_at) / RFU A4GNT (11735810_at) / Fold change /veh A4GNT (11735810_at) / RFU PRB3 (11715151_x_at) / Fold change /veh PRB3 (11715151_x_at) / RFU TUBB4B (11761932_at) / Fold change /veh TUBB4B (11761932_at) / RFU CAPN14 (11732068_a_at) / Fold change /veh CAPN14 (11732068_a_at) / RFU TMCC2 (11721928_a_at) / Fold change /veh TMCC2 (11721928_a_at) / RFU IRGQ (11745062_a_at) / Fold change /veh IRGQ (11745062_a_at) / RFU FAM174B (11720279_a_at) / Fold change /veh FAM174B (11720279_a_at) / RFU TMPRSS4 (11748680_a_at) / Fold change /veh TMPRSS4 (11748680_a_at) / RFU FAM212B (11763350_a_at) / Fold change /veh FAM212B (11763350_a_at) / RFU PLEKHG5 (11743358_a_at) / Fold change /veh PLEKHG5 (11743358_a_at) / RFU ZSCAN30 (11745921_a_at) / Fold change /veh ZSCAN30 (11745921_a_at) / RFU CMKLR1 (11741424_a_at) / Fold change /veh CMKLR1 (11741424_a_at) / RFU LOC101060620 /// MAPK8IP1 (11723275_at) / Fold change /veh LOC101060620 /// MAPK8IP1 (11723275_at) / RFU SPTSSB (11747773_x_at) / Fold change /veh SPTSSB (11747773_x_at) / RFU PRSS12 (11739890_at) / Fold change /veh PRSS12 (11739890_at) / RFU BIN1 (11741810_x_at) / Fold change /veh BIN1 (11741810_x_at) / RFU WNT11 (11732464_a_at) / Fold change /veh WNT11 (11732464_a_at) / RFU C10orf10 (11716521_a_at) / Fold change /veh C10orf10 (11716521_a_at) / RFU C5orf56 (11738089_at) / Fold change /veh C5orf56 (11738089_at) / RFU CYB561 (11721691_x_at) / Fold change /veh CYB561 (11721691_x_at) / RFU ANKRD19P (11752326_a_at) / Fold change /veh ANKRD19P (11752326_a_at) / RFU OR2T12 /// OR2T33 /// OR2T8 (11738714_s_at) / Fold change /veh OR2T12 /// OR2T33 /// OR2T8 (11738714_s_at) / RFU VCAN (11748164_a_at) / Fold change /veh VCAN (11748164_a_at) / RFU JSRP1 (11732532_at) / Fold change /veh JSRP1 (11732532_at) / RFU KRTAP10-11 (11738290_x_at) / Fold change /veh KRTAP10-11 (11738290_x_at) / RFU MYO3A (11730013_a_at) / Fold change /veh MYO3A (11730013_a_at) / RFU EBF3 (11725865_a_at) / Fold change /veh EBF3 (11725865_a_at) / RFU CAMK2N1 (11719241_x_at) / Fold change /veh CAMK2N1 (11719241_x_at) / RFU C5orf56 (11738088_a_at) / Fold change /veh C5orf56 (11738088_a_at) / RFU OLFML3 (11715873_a_at) / Fold change /veh OLFML3 (11715873_a_at) / RFU LOC100653217 /// NTM (11731650_a_at) / Fold change /veh LOC100653217 /// NTM (11731650_a_at) / RFU MAPK11 (11762145_a_at) / Fold change /veh MAPK11 (11762145_a_at) / RFU FIZ1 (11724087_x_at) / Fold change /veh FIZ1 (11724087_x_at) / RFU OASL (11726364_x_at) / Fold change /veh OASL (11726364_x_at) / RFU SOX15 (11748057_x_at) / Fold change /veh SOX15 (11748057_x_at) / RFU CD79A (11719716_a_at) / Fold change /veh CD79A (11719716_a_at) / RFU HIST1H1D (11736915_at) / Fold change /veh HIST1H1D (11736915_at) / RFU CASKIN2 (11723855_a_at) / Fold change /veh CASKIN2 (11723855_a_at) / RFU LOC730098 (11760151_x_at) / Fold change /veh LOC730098 (11760151_x_at) / RFU OR4N2 (11742367_at) / Fold change /veh OR4N2 (11742367_at) / RFU PRRT2 (11749266_a_at) / Fold change /veh PRRT2 (11749266_a_at) / RFU SNX32 (11753110_a_at) / Fold change /veh SNX32 (11753110_a_at) / RFU CDHR5 (11726645_a_at) / Fold change /veh CDHR5 (11726645_a_at) / RFU RCAN1 (11760418_a_at) / Fold change /veh RCAN1 (11760418_a_at) / RFU FAM167A (11723789_a_at) / Fold change /veh FAM167A (11723789_a_at) / RFU FAM26E (11764081_at) / Fold change /veh FAM26E (11764081_at) / RFU ISYNA1 (11749810_s_at) / Fold change /veh ISYNA1 (11749810_s_at) / RFU ACY1 (11761880_at) / Fold change /veh ACY1 (11761880_at) / RFU 11764098_at / Fold change /veh 11764098_at / RFU SAMD14 (11745864_x_at) / Fold change /veh SAMD14 (11745864_x_at) / RFU NPB (11741838_a_at) / Fold change /veh NPB (11741838_a_at) / RFU TMPRSS6 (11731388_a_at) / Fold change /veh TMPRSS6 (11731388_a_at) / RFU KRTAP10-2 (11738614_at) / Fold change /veh KRTAP10-2 (11738614_at) / RFU ARHGAP8 /// PRR5-ARHGAP8 (11727945_x_at) / Fold change /veh ARHGAP8 /// PRR5-ARHGAP8 (11727945_x_at) / RFU KRTAP5-7 /// NADSYN1 (11734609_at) / Fold change /veh KRTAP5-7 /// NADSYN1 (11734609_at) / RFU RASL12 (11751679_a_at) / Fold change /veh RASL12 (11751679_a_at) / RFU CDKN2B (11736163_a_at) / Fold change /veh CDKN2B (11736163_a_at) / RFU PRF1 (11729649_at) / Fold change /veh PRF1 (11729649_at) / RFU, ZNF638 /// ZNF638-IT1 / Fold change vs veh, ZNF638 /// ZNF638-IT1 / RFU, PANK3 / Fold change vs veh, PANK3 / RFU, SH3YL1 / Fold change vs veh, SH3YL1 / RFU, ZEB2 / Fold change vs veh, ZEB2 / RFU, NRIP1 / Fold change vs veh, NRIP1 / RFU, PTTG1IP / Fold change vs veh, PTTG1IP / RFU, CAPN2 / Fold change vs veh, CAPN2 / RFU, MED14 / Fold change vs veh, MED14 / RFU, SNORA58 / Fold change vs veh, SNORA58 / RFU, C1orf63 / Fold change vs veh, C1orf63 / RFU, LRRFIP1 / Fold change vs veh, LRRFIP1 / RFU, NDUFAF7 / Fold change vs veh, NDUFAF7 / RFU, SLC12A2 / Fold change vs veh, SLC12A2 / RFU, IBTK / Fold change vs veh, IBTK / RFU, ESF1 / Fold change vs veh, ESF1 / Fold change vs veh, TMEM50B / RFU, TAOK1 / Fold change vs veh, TAOK1 / RFU, ACBD3 / Fold change vs veh, ACBD3 / RFU, TMA16 / Fold change vs veh, TMA16 / RFU, RWDD3 / Fold change vs veh, RWDD3 / RFU, BCAT1 / Fold change vs veh, BCAT1 / RFU, EDEM3 / Fold change vs veh, EDEM3 / RFU, TMEM33 / Fold change vs veh, TMEM33 / RFU, WDR75 / Fold change vs veh, WDR75 / RFU, AHCTF1 / Fold change vs veh, AHCTF1 / RFU, TFRC / Fold change vs veh, TFRC / RFU, ZDHHC17 / Fold change vs veh, ZDHHC17 / RFU, NOM1 / Fold change vs veh, NOM1 / RFU, ARL8B / Fold change vs veh, ARL8B / RFU, ZBTB11 / Fold change vs veh, ZBTB11 / RFU, TAMM41 / Fold change vs veh, TAMM41 / RFU, KIAA1704 /// LOC100996395 / Fold change vs veh, KIAA1704 /// LOC100996395 / RFU, ING1 / Fold change vs veh, ING1 / RFU, TRMT61B / Fold change vs veh, TRMT61B / RFU, FUBP3 / Fold change vs veh, FUBP3 / RFU, TP53 / Fold change vs veh, TP53 / RFU, TNKS2 / Fold change vs veh, TNKS2 / RFU, ZFP14 / Fold change vs veh, ZFP14 / RFU, ACTR2 / Fold change vs veh, ACTR2 / RFU, PPP3R1 / Fold change vs veh, PPP3R1 / RFU, PIK3R1 / Fold change vs veh, PIK3R1 / RFU, HNRNPA1 / Fold change vs veh, HNRNPA1 / RFU, RNF170 / Fold change vs veh, RNF170 / RFU, ZNF28 / Fold change vs veh, ZNF28 / RFU, RNGTT / Fold change vs veh, RNGTT / RFU, OGT / Fold change vs veh, OGT / RFU, BRD1 / Fold change vs veh, BRD1 / RFU, MARS / Fold change vs veh, MARS / RFU, ZNF655 / Fold change vs veh, ZNF655 / RFU, FAHD1 / Fold change vs veh, FAHD1 / RFU, BDP1 / Fold change vs veh, BDP1 / RFU, LRRCC1 / Fold change vs veh, LRRCC1 / RFU, ARID1A / Fold change vs veh, ARID1A / RFU, ZNF146 / Fold change vs veh, ZNF146 / RFU, ZNF330 / Fold change vs veh, ZNF330 / RFU, GPN3 / Fold change vs veh, GPN3 / RFU, C9orf123 / Fold change vs veh, C9orf123 / RFU, N4BP2L2 / Fold change vs veh, N4BP2L2 / RFU, ARFIP1 / Fold change vs veh, ARFIP1 / RFU, FAM179B / Fold change vs veh, FAM179B / RFU, BCL10 / Fold change vs veh, BCL10 / RFU, UHRF1BP1L / Fold change vs veh, UHRF1BP1L / RFU, BET1 / Fold change vs veh, BET1 / RFU, CNOT2 / Fold change vs veh, CNOT2 / RFU, ZNF268 / Fold change vs veh, ZNF268 / Fold change vs veh, ZNF507 / RFU, DGCR2 / Fold change vs veh, DGCR2 / RFU, WDSUB1 / Fold change vs veh, WDSUB1 / Fold change vs veh, HSP90B1 /// MIR3652 / RFU, ADSS / Fold change vs veh, ADSS / RFU, GK / Fold change vs veh, GK / RFU, ZNF148 / Fold change vs veh, ZNF148 / RFU, TAF9 / Fold change vs veh, TAF9 / RFU, SLC1A5 / Fold change vs veh, SLC1A5 / RFU, SLMO2 / Fold change vs veh, SLMO2 / RFU, ABCC4 / Fold change vs veh, ABCC4 / RFU, LOC101060439 /// RAP1B / Fold change vs veh, LOC101060439 /// RAP1B / RFU, RFX7 / Fold change vs veh, RFX7 / RFU, GTPBP10 / Fold change vs veh, GTPBP10 / RFU, CNEP1R1 / Fold change vs veh, CNEP1R1 / RFU, BIVM-ERCC5 /// ERCC5 / Fold change vs veh, BIVM-ERCC5 /// ERCC5 / RFU, ILF3 / Fold change vs veh, ILF3 / RFU 11762660_at / Fold change /veh 11762660_at / RFU VCAN (11757783_s_at) / Fold change /veh VCAN (11757783_s_at) / RFU DDX43 (11728927_at) / Fold change /veh DDX43 (11728927_at) / RFU KRT8 (11758188_x_at) / Fold change /veh KRT8 (11758188_x_at) / RFU NKD1 (11759106_at) / Fold change /veh NKD1 (11759106_at) / RFU SRD5A1 (11742802_a_at) / Fold change /veh SRD5A1 (11742802_a_at) / RFU TPSAB1 /// TPSB2 (11721975_s_at) / Fold change /veh TPSAB1 /// TPSB2 (11721975_s_at) / RFU GSTM3 (11746129_a_at) / Fold change /veh GSTM3 (11746129_a_at) / RFU IL23R (11737362_x_at) / Fold change /veh IL23R (11737362_x_at) / RFU TMEM51 (11727254_a_at) / Fold change /veh TMEM51 (11727254_a_at) / RFU PIWIL2 (11732686_x_at) / Fold change /veh PIWIL2 (11732686_x_at) / RFU ORM1 (11744905_x_at) / Fold change /veh ORM1 (11744905_x_at) / RFU CCDC152 (11743942_at) / Fold change /veh CCDC152 (11743942_at) / RFU ECM1 (11717891_a_at) / Fold change /veh ECM1 (11717891_a_at) / RFU IL23R (11748794_a_at) / Fold change /veh IL23R (11748794_a_at) / RFU TNFAIP8L3 (11732012_x_at) / Fold change /veh TNFAIP8L3 (11732012_x_at) / RFU MBOAT4 (11741988_at) / Fold change /veh MBOAT4 (11741988_at) / RFU 11764193_at / Fold change /veh 11764193_at / RFU TMEM53 (11763286_at) / Fold change /veh TMEM53 (11763286_at) / RFU MAGEB2 (11727129_at) / Fold change /veh MAGEB2 (11727129_at) / RFU TMEM200A (11744735_a_at) / Fold change /veh TMEM200A (11744735_a_at) / RFU CCDC152 (11751479_a_at) / Fold change /veh CCDC152 (11751479_a_at) / RFU FAM211A (11726209_a_at) / Fold change /veh FAM211A (11726209_a_at) / RFU RGS16 (11746705_a_at) / Fold change /veh RGS16 (11746705_a_at) / RFU VCAN (11755009_s_at) / Fold change /veh VCAN (11755009_s_at) / RFU RHOB (11743442_s_at) / Fold change /veh RHOB (11743442_s_at) / RFU RGS16 (11720943_a_at) / Fold change /veh RGS16 (11720943_a_at) / RFU RGS16 (11720944_at) / Fold change /veh RGS16 (11720944_at) / RFU, VPS4B / Fold change vs veh, VPS4B / RFU, CREB1 / Fold change vs veh, CREB1 / RFU, DNAJC13 / Fold change vs veh, DNAJC13 / RFU, GNAQ / Fold change vs veh, GNAQ / RFU, CDK5R1 / Fold change vs veh, CDK5R1 / RFU, ZRANB3 / Fold change vs veh, ZRANB3 / RFU, CUL4A / Fold change vs veh, CUL4A / RFU, CCNY / Fold change vs veh, CCNY / RFU, UFL1 / Fold change vs veh, UFL1 / RFU, COG3 / Fold change vs veh, COG3 / RFU, DIAPH2 / Fold change vs veh, DIAPH2 / RFU, SKA2 / Fold change vs veh, SKA2 / RFU, AFF3 / Fold change vs veh, AFF3 / RFU, LMF1 / Fold change vs veh, LMF1 / RFU, IPO11 / Fold change vs veh, IPO11 / RFU, DFFB / Fold change vs veh, DFFB / RFU, FOXP1 / Fold change vs veh, FOXP1 / RFU, CARD8 / Fold change vs veh, CARD8 / RFU, STRN3 / Fold change vs veh, STRN3 / RFU, ADK / Fold change vs veh, ADK / RFU, RASSF2 / Fold change vs veh, RASSF2 / RFU, WIPF1 / Fold change vs veh, WIPF1 / RFU, LARP1B / Fold change vs veh, LARP1B / RFU, RASA1 / Fold change vs veh, RASA1 / RFU, RB1 / Fold change vs veh, RB1 / RFU, PPFIA1 / Fold change vs veh, PPFIA1 / RFU, MAT2A / Fold change vs veh, MAT2A / RFU, CCT5 / Fold change vs veh, CCT5 / RFU, WDR92 / Fold change vs veh, WDR92 / RFU, CUX1 / Fold change vs veh, CUX1 / RFU, TTC7A / Fold change vs veh, TTC7A / RFU, TMEM135 / Fold change vs veh, TMEM135 / RFU, DEPTOR / Fold change vs veh, DEPTOR / RFU, CPM / Fold change vs veh, CPM / RFU, DNAJB6 / Fold change vs veh, DNAJB6 / RFU, CACNA2D3 / Fold change vs veh, CACNA2D3 / RFU, DTX4 / Fold change vs veh, DTX4 / RFU, TFCP2 / Fold change vs veh, TFCP2 / RFU, GMCL1 /// GMCL1P1 / Fold change vs veh, GMCL1 /// GMCL1P1 / RFU, AEBP2 / Fold change vs veh, AEBP2 / RFU, SNHG1 /// SNORD22 /// SNORD25 /// SNORD26 /// SNORD27 /// SNORD28 /// SNORD29 /// SNORD31 / Fold change vs veh, SNHG1 /// SNORD22 /// SNORD25 /// SNORD26 /// SNORD27 /// SNORD28 /// SNORD29 /// SNORD31 / Fold change (Aza/veh), C12orf56 (ProbeSet 11735607_a_at) / Fold change (ACY-1035/veh), C12orf56 (ProbeSet 11735607_a_at) / Fold change (Aza/veh), FGFR1OP (ProbeSet 11751329_s_at) / Fold change (ACY-1035/veh), FGFR1OP (ProbeSet 11751329_s_at) / Fold change (Aza/veh), VPS36 (ProbeSet 11739960_a_at) / Fold change (ACY-1035/veh), VPS36 (ProbeSet 11739960_a_at) / RFU SYPL1 (11715823_x_at) / Fold change /veh SYPL1 (11715823_x_at) / RFU IGFBP7 (11715501_s_at) / Fold change /veh IGFBP7 (11715501_s_at) / RFU REEP3 (11722064_at) / Fold change /veh REEP3 (11722064_at) / RFU IGLL1 (11728026_x_at) / Fold change /veh IGLL1 (11728026_x_at): dose or concentration left out as unconfirmed", "settings": "ProbeSet 11758919_x_at; LIST D", "data": [{"smiles": "Nc1ccc(-c2cccs2)cc1NC(=O)c1ccc2c(c1)cc(C1CC1)n2CCN1CCOCC1", "note": "[ACY-1035]", "values": [{"measurement": "Fold change vs veh, TFCP2", "result": 0.94}]}]}
